According to patent publication US6410533B1, “Antibacterial compounds” (Genzyme Corporation, priority 2000, dated 2002):
pIC50: −log10 of the molar value. Values after ≈ are worked out from the molar mass of the structure shown. Where two headings read alike, the source gives them in different places.

Key:
[1] = tested on: methicillin-resistant Staphylococcus aureus (ATCC 33591); experiment: In vivo mouse intraperitoneal infection, mortality and % survivors over 7 days; conditions: MRSA ATCC 33591 i.p., ICR mice; for In Vivo, single dose (% of mice rescued): single dose 1 h post inoculation; for In Vivo, double dose (% of mice rescued): 1 and 5 h post inoculation
How it was run: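 Survival and mortality were scored for 7 days after i.p. challenge of 20 g male ICR mice (n=10) with an LD90-100 inoculum (2-3×10^7 CFU/mouse) of MRSA ATCC 33591 in 5% mucin. Treatment was subcutaneous in 1% cremophore EL/saline, either once at 1 h or twice at 1 h and 5 h.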

[2] = tested on: Staphylococcus aureus bacteria (ATCC 9604 SV); experiment: Minimal inhibitory concentration (MIC), broth microdilution; assay type: cell-based; conditions: 24 h at 37° C.
How it was run: (§1)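 MIC: broth microdilution per NCCLS in Mueller-Hinton broth; overnight culture adjusted to 0.05 McFarland and diluted twenty-fold into compound-containing broth. IC50: inoculum at 0.1 McFarland diluted two-fold into TB broth with compound, 3–5 h at 37° C. Turbidity at 550 nm; IC50 is the concentration giving 50% growth inhibition.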

[3] = tested on: Staphylococcus aureus bacteria (ATCC 9604 SV); experiment: IC50 determination, growth inhibition by turbidity at 550 nm; assay type: cell-based; conditions: Staphylococcus aureus ATCC 9604 SV, turbidity at 550 nm after 3-5 h at 37° C.
How it was run: as §1

[4] = ATCC9604, Staphylococcus aureus ATCC 9604 SV, read-out: MIC
[5] = Staphylococcus aureus ATCC 9604 SV

SMILES | In Vivo, single dose (% of mice rescued) ([1]; 2 mg/kg s.c.) | In Vivo, single dose (% of mice rescued) ([1]; 20 mg/kg s.c.) | MIC [2, 4] | pIC50 ([3]; ATCC9604) | MIC [2, 5] | pIC50 [3] | In Vivo, double dose (% of mice rescued) ([1]; 2 × 2 mg/kg s.c.) | In Vivo, double dose (% of mice rescued) ([1]; 2 × 20 mg/kg s.c.) | In Vivo, single dose (% of mice rescued) ([1]; 40 mg/kg s.c.) | In Vivo, single dose (% of mice rescued) ([1]; 80 mg/kg s.c.) | In Vivo, single dose (% of mice rescued) ([1]; 160 mg/kg s.c.)
Cc1cc(NC(=O)Nc2cc(C(F)(F)F)cc(C(F)(F)F)c2)n(-c2ccc(Br)cc2)n1 [Compound 95, 1-(3,5-Bis-trifluoromethyl-phenyl)-3-[2-(4-bromo-phenyl)-5-methyl-2H-pyrazol-3-yl]-urea] | 25% @ 2 mg/kg | 25% @ 20 mg/kg | < 0.761 µg/mL | 6.57 | – | – | – | – | – | – | –
Cc1cc(NC(=O)Nc2cc(Cl)cc(Cl)c2)n(-c2ccc(Br)cc2)n1 [Compound 96] | 0% @ 2 mg/kg | 25% @ 20 mg/kg | – | – | >22.0 µg/mL | 6.01 | – | – | – | – | –
CCOC(=O)c1cc(NC(=O)Nc2cc(C(F)(F)F)cc(C(F)(F)F)c2)n(-c2ccc(Br)cc2)n1 [Compound 98] | – | – | – | – | >14.1 µg/mL | 5.51 | 0% @ 2 × 2 mg/kg | 33% @ 2 × 20 mg/kg | – | – | –
O=C(Nc1cc(C(F)(F)F)cc(C(F)(F)F)c1)Nc1cc(CO)nn1-c1ccc(Br)cc1 [Compound 99, 1-(3,5-Bis-trifluoromethyl-phenyl)-3-[2-(4-bromo-phenyl)-5-hydroxymethyl-2H-pyrazol-3-yl]-urea] | – | – | 6.54 µg/mL (≈ 12.5 µM) | 5.37 | – | – | 33% @ 2 × 2 mg/kg | 33% @ 2 × 20 mg/kg | – | – | –
CC(C)(C)c1cc(NC(=O)Nc2cc(Cl)cc(Cl)c2)n(-c2ccc(Br)cc2)n1 [Compound 100] | 0% @ 2 mg/kg | 0% @ 20 mg/kg | – | – | <0.723 µg/mL | 6.88 | – | – | – | – | –
CC(C)(C)c1cc(NC(=O)Nc2cc(C(F)(F)F)cc(C(F)(F)F)c2)n(-c2ccc(Br)cc2)n1 [Compound 101] | 0% @ 2 mg/kg | 0% @ 20 mg/kg | – | – | <0.824 µg/mL | 6.84 | – | – | – | – | –
COCCN(CCOC)Cc1cc(NC(=O)Nc2cc(Cl)cc(Cl)c2)n(-c2ccc(Br)cc2)n1 [Compound 102] | 0% @ 2 mg/kg | 25% @ 20 mg/kg | – | – | 28.6 µg/mL (≈ 50.1 µM) | 5.45 | – | – | – | – | –
COCCN(CCOC)Cc1cc(NC(=O)Nc2cc(C(F)(F)F)cc(C(F)(F)F)c2)n(-c2ccc(Br)cc2)n1 [Compound 103] | 25% @ 2 mg/kg | 25% @ 20 mg/kg | – | – | 16.0 µg/mL (≈ 25.1 µM) | 5.81 | 0% @ 2 × 2 mg/kg | 33% @ 2 × 20 mg/kg | – | – | –
O=C(Nc1cc(C(F)(F)F)cc(C(F)(F)F)c1)Nc1cc(CN(CCO)CCO)nn1-c1ccc(Br)cc1 [Compound 104] | – | – | – | – | 15.3 µg/mL (≈ 25.1 µM) | 5.17 | 17% @ 2 × 2 mg/kg | 17% @ 2 × 20 mg/kg | – | – | –
O=C(Nc1cc(Cl)cc(Cl)c1)Nc1cc(-c2ccccc2)nn1-c1ccc(Br)cc1 [Compound 107] | 25% @ 2 mg/kg | 12.5% @ 20 mg/kg | – | – | 6.28 µg/mL (≈ 12.5 µM) | 6.92 | 0% @ 2 × 2 mg/kg | 17% @ 2 × 20 mg/kg | 10% @ 40 mg/kg | 10% @ 80 mg/kg | 5% @ 160 mg/kg
O=C(Nc1cc(Cl)cc(Cl)c1)Nc1cc(-c2cccs2)nn1-c1ccc(Br)cc1 [Compound 108] | 0% @ 2 mg/kg | 0% @ 20 mg/kg | – | – | >25.4 µg/mL | 6.71 | – | – | – | – | –
O=C(Nc1cc(C(F)(F)F)cc(C(F)(F)F)c1)Nc1cc(-c2cccs2)nn1-c1ccc(Br)cc1 [Compound 109] | 25% @ 2 mg/kg | 25% @ 20 mg/kg | – | – | <0.863 µg/mL | 6.81 | – | – | – | – | –
O=C(Nc1cc(Cl)cc(Cl)c1)Nc1cc(-c2ccsc2)nn1-c1ccc(Br)cc1 [Compound 110] | 0% @ 2 mg/kg | 0% @ 20 mg/kg | – | – | 25.4 µg/mL (≈ 50 µM) | 6.79 | – | – | – | – | –
O=C(Nc1cc(C(F)(F)F)cc(C(F)(F)F)c1)Nc1cc(-c2ccsc2)nn1-c1ccc(Br)cc1 [Compound 111] | 0% @ 2 mg/kg | 0% @ 20 mg/kg | – | – | <0.863 µg/mL | 6.90 | – | – | – | – | –
O=C(Nc1cc(Cl)cc(Cl)c1)Nc1cc(-c2ccco2)nn1-c1ccc(Br)cc1 [Compound 112] | 0% @ 2 mg/kg | 0% @ 20 mg/kg | – | – | 6.15 µg/mL (≈ 12.5 µM) | 6.63 | – | – | – | – | –
O=C(Nc1cc(C(F)(F)F)cc(C(F)(F)F)c1)Nc1cc(-c2ccco2)nn1-c1ccc(Br)cc1 [Compound 113] | 25% @ 2 mg/kg | 0% @ 20 mg/kg | – | – | <0.839 µg/mL | 6.82 | – | – | – | – | –
O=C(Nc1cc(Cl)cc(Cl)c1)Nc1cc(-c2cccnc2)nn1-c1ccc(Br)cc1 [Compound 116] | 0% @ 2 mg/kg | 0% @ 20 mg/kg | – | – | 3.02 µg/mL (≈ 6 µM) | 6.41 | – | – | – | – | –
O=C(Nc1cc(C(F)(F)F)cc(C(F)(F)F)c1)Nc1cc(-c2cccnc2)nn1-c1ccc(Br)cc1 [Compound 117, 1-(3,5-Bis-trifluoromethyl-phenyl)-3-[2-(4-bromo-phenyl)-5-pyridin-3-yl-2H-pyrazol-3-yl]-urea] | 25% @ 2 mg/kg | 0% @ 20 mg/kg | 3.42 µg/mL (≈ 6 µM) | 6.62 | – | – | – | – | – | – | –
O=C(Nc1cc(Cl)cc(Cl)c1)Nc1cc(-c2ccccc2)nn1CC(F)(F)F [Compound 120] | 0% @ 2 mg/kg | 0% @ 20 mg/kg | – | – | >21.5 µg/mL | 6.54 | – | – | – | – | –
O=C(Nc1cc(C(F)(F)F)cc(C(F)(F)F)c1)Nc1cc(-c2ccccc2)nn1CC(F)(F)F [Compound 121] | 0% @ 2 mg/kg | 0% @ 20 mg/kg | – | – | <1.49 µg/mL | 7.08 | – | – | – | – | –
O=C(Nc1cc(C(F)(F)F)cc(C(F)(F)F)c1)Nc1nc(-c2ccc(F)c(F)c2)cs1 [Compound 151] | 0% @ 2 mg/kg | 0% @ 20 mg/kg | – | – | 1.40 µg/mL (≈ 3 µM) | 6.88 | – | – | – | – | –
Cc1cc(-c2csc(NC(=O)Nc3cc(C(F)(F)F)cc(C(F)(F)F)c3)n2)ccc1F [Compound 152] | 0% @ 2 mg/kg | 0% @ 20 mg/kg | – | – | 1.39 µg/mL (≈ 3 µM) | 6.77 | – | – | – | – | –
O=C(Nc1ccc(F)c(C(F)(F)F)c1)Nc1nc(-c2ccc(F)c(F)c2)cs1 [Compound 168] | 0% @ 2 mg/kg | 0% @ 20 mg/kg | – | – | <0.626 µg/mL | 6.74 | – | – | – | – | –
O=C(NCc1cccc(Cl)c1)Nc1nc(-c2ccc(Br)cc2)cs1 [Compound 175, 1-[4-(4-Bromo-phenyl)-thiazol-2-yl]-3-(3-chloro-benzyl)-urea] | – | – | 5.28 µg/mL (≈ 12.5 µM) | 5.86 | – | – | 0% @ 2 × 2 mg/kg | 25% @ 2 × 20 mg/kg | – | – | –
